Experimental data from patent US20090018134A1, “Compounds - 945” (AstraZeneca AB, priority 2007, published 2009).
Like-named read-outs stand apart in the source and are kept apart here.

Biological target: T1, mTOR (Homo sapiens, UniProt P42345)
T1 construct: FLAG; made in house
Assay: In Vitro mTOR Kinase Assay (Echo), Test (a)(ii)
Type: biochemical
Summary of the method: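 Inhibition expressed as IC50 from an AlphaScreen read-out: phospho-T389 p70 S6K antibody plus streptavidin donor/protein A acceptor beads, left overnight in the dark. The kinase reaction ran 2 h at room temperature, then was stopped with EDTA. Enzyme: FLAG-purified mTOR 1362-2549 fragment from stable HEK293 cells.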

[1] = table of enzyme assay Test (a)(ii), read-out: Test (a)(ii) IC50
[2] = read-out: mTOR Kinase Assay (Echo)

T1 sequence (P42345 1362-2549): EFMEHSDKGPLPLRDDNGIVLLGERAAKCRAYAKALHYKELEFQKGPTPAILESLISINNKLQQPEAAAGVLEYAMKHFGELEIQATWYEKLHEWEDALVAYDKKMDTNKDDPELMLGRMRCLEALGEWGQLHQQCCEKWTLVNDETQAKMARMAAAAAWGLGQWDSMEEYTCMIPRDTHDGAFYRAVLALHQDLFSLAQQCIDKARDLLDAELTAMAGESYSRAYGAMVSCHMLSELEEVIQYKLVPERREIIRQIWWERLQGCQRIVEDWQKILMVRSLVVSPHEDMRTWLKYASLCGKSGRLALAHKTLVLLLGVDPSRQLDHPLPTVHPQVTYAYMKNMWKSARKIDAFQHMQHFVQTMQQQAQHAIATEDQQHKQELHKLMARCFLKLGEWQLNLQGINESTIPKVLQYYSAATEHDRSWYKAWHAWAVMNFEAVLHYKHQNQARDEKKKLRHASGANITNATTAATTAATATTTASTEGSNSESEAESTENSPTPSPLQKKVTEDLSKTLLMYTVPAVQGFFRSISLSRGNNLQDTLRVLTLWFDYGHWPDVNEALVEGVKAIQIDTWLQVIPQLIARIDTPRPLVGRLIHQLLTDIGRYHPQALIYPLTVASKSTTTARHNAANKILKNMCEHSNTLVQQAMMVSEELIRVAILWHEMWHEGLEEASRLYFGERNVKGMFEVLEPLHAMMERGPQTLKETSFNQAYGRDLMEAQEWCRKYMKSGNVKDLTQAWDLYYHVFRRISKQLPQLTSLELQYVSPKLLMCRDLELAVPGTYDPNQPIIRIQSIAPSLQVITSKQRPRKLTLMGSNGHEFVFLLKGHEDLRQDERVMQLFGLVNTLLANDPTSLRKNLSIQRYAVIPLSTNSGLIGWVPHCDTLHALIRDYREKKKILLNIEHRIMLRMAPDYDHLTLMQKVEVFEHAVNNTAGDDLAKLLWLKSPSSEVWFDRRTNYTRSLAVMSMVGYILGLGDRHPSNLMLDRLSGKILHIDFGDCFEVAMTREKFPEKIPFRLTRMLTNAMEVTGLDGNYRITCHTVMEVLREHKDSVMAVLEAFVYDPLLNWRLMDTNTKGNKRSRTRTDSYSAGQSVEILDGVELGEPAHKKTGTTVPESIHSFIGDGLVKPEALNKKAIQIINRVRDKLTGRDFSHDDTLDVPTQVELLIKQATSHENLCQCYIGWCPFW

C[C@H]1COCCN1c1cc(C2(S(=O)(=O)c3ccccc3F)CC2)nc(-c2ccc(NC(=O)NCCO)cc2)n1 [Example 58b, 1-[4-[4-[1-(2-fluorophenyl)sulfonylcyclopropyl]-6-[(3S)-3-methylmorpholin-4-yl]pyrimidin-2-yl]phenyl]-3-(2-hydroxyethyl)urea]
IC50 [1]: 2 nM

CCCNC(=O)Nc1ccc(-c2nc(N3CCOC[C@@H]3C)cc(C3(S(=O)(=O)c4cc(F)cc(F)c4)CC3)n2)cc1 [Example 19h, 1-[4-[4-[1-(3,5-difluorophenyl)sulfonylcyclopro-pyl]-6-[(3S)-3-methylmorpholin-4-yl]pyrimidin-2-yl]phenyl]-3-propylurea]
IC50 [1]: 2.46 nM

CCS(=O)(=O)C1(c2cc(N3CCOC[C@@H]3C)nc(-c3ccc(NC(=O)NCCF)cc3)n2)CC1 [Example 36ef, 1-[4-[4-(1-ethylsulfonylcyclopropyl)-6-[(3S)-3-methylmorpholin-4-yl]pyrimidin-2-yl]phenyl]-3-(2-fluorethyl)urea]
IC50 [1]: 8.41 nM

C[C@H]1COCCN1c1cc(C2(S(=O)(=O)c3ccccn3)CC2)nc(-c2ccc(NC(=O)Nc3ncns3)cc2)n1 [Example 36ct, 1-[4-[4-[(3S)-3-methylmorpholin-4-yl]-6-(1-pyridin-2-ylsulfonylcyclopropyl)pyrimidin-2-yl]phenyl]-3-(1,2,4-thiadiazol-5-yl)urea]
IC50 [1]: 1.57 nM

CNC(=O)Nc1ccc(-c2nc(N3CCOC[C@@H]3C)cc(C3(S(=O)(=O)c4cc(F)ccc4F)CC3)n2)cc1 [Example 60, 1-[4-[4-[1-(2,5-Difluorophenyl)sulfonylcyclopropyl]-6-[(3S)-3-methylmorpholin-4-yl]pyrimidin-2-yl]phenyl]-3-methylurea]
IC50 [1]: 12 nM

CNC(=O)Nc1ccc(-c2nc(N3CCOC[C@@H]3C)cc(C3(S(=O)(=O)C4CC4)CCOCC3)n2)cc1 [Example 23f, 1-[4-[4-(4-cyclopropylsulfonyloxan-4-yl)-6-[(3S)-3-methylmorpholin-4-yl]pyrimidin-2-yl]phenyl]-3-methylurea]
IC50 [1]: 19.9 nM

C[C@H]1COCCN1c1cc(C2(S(=O)(=O)c3ccc(C(=O)N(C)C)cn3)CC2)nc(-c2ccc(NC(=O)NC3CC3)cc2)n1 [Example 49a]
IC50 [1]: 2.67 nM

C[C@H]1COCCN1c1cc(C2(S(=O)(=O)c3ccccn3)CC2)nc(-c2ccc(NC(=O)Nc3ccccn3)cc2)n1 [Example 28b, 1-[4-[4-[(3S)-3-methylmorpholin-4-yl]-6-(1-pyridin-2-ylsulfonylcyclopropyl)pyrimidin-2-yl]phenyl]-3-pyridin-2-ylurea]
IC50 [1]: 1.49 nM

CNC(=O)Nc1ccc(-c2nc(N3CCOC[C@@H]3C)cc(C3(S(=O)(=O)C4CCCCC4)CC3)n2)cc1 [Example 26e, 1-[4-[4-(1-cyclohexylsulfonylcyclopropyl)-6-[(3S)-3-methylmorpholin-4-yl]pyrimidin-2-yl]phenyl]-3-methylurea]
IC50 [1]: 3.95 nM

C[C@H]1COCCN1c1cc(C2(S(=O)(=O)CCCO)CC2)nc(-c2ccc(NC(=O)NCC(=O)N(C)C)cc2)n1 [Example 36cs, 2-[[4-[4-[1-(3-hydroxypropylsulfonyl)cyclopropyl]-6-[(3S)-3-methylmorpholin-4-yl]pyrimidin-2-yl]phenyl]carbamoylamino]-N,N-dimethylactamide]
IC50 [1]: 1170 nM

CN(C(=O)C1(c2cc(N3CCOCC3)nc(-c3ccc(NC(=O)NC4CC4)cc3)n2)CC1)C1CC1 [Example 33c, N-cyclopropyl-1-[2-[4-(cyclopropylcarbamoylamino)phe-nyl]-6-morpholin-4-ylpyrimidin-4-yl]-N-methylcyclopropane-1-carboxamide]
IC50 [1]: 2.58 nM

Cc1csc(S(=O)(=O)C2(c3cc(N4CCOC[C@@H]4C)nc(-c4ccc(NC(=O)NCc5ncc[nH]5)cc4)n3)CC2)n1 [Example 36n, 3-(1H-imidazol-2-ylmethyl)-1-[4-[4-[(3S)-3-methylmorpholin-4-yl]-6-[1-[(4-methyl-1,3-thiazol-2-yl)sulfonyl]cyclopropyl]pyrimidin-2-yl]phenyl]urea]
IC50 [1]: 24.8 nM

C[C@H]1COCCN1c1cc(C2(S(=O)(=O)c3ccccc3)CCC2)nc(-c2ccc(NC(=O)NCCF)cc2)n1 [Example 64s, 1-[4-[4-[1-(benzenesulfonyl)cyclobutyl]-6-[(3S)-3-methylmorpholin-4-yl]pyrimidin-2-yl]phenyl]-3-(2-fluoroethyl)urea]
IC50 [1]: 2.96 nM

Cc1noc(C)c1S(=O)(=O)C1(c2cc(N3CCOC[C@@H]3C)nc(-c3ccc(NC(=O)NCCO)cc3)n2)CC1 [Example 59b, 1-[4-[4-[1-[(3,5-dimethyl-1,2-oxazol-4-yl)sulfonyl]cyclopropyl]-6-[(3S)-3-methylmorpholin-4-yl]pyrimidin-2-yl]phenyl]-3-(2-hydroxyethyl)urea]
IC50 [1]: 9.93 nM

CNC(=O)Nc1ccc(-c2nc(N3CCOCC3)cc(C3(S(=O)(=O)c4ccc(F)cc4)CC3)n2)cc1 [Example 36ap, 3-[4-[4-[1-(4-fluorophenyl)sulfonylcyclopropyl]-6-morpholin-4-ylpyrimidin-2-yl]phenyl]-1-methylurea]
IC50 [1]: 15.6 nM

CCNC(=O)Nc1ccc(-c2nc(N3CCOC[C@@H]3C)cc(C3(S(=O)(=O)c4cc(F)ccc4C)CC3)n2)cc1 [Example 61e, 1-ethyl-3-[4-[4-[1-(5-fluoro-2-methylphenyl)sulfonylcyclopropyl]-6-[(3S)-3-methylmorpholin-4-yl]pyrimidin-2-yl]phenyl]urea]
IC50 [1]: 23.7 nM

C[C@H]1COCCN1c1cc(C2(S(=O)(=O)CCCO)CC2)nc(-c2ccc(NC(=O)Nc3ccccn3)cc2)n1 [Example 31c, 1-[4-[4-[1-(3-hydroxypropylsulfonyl)cyclopropyl]-6-[(3S)-3-methylmorpholin-4-yl]pyrimidin-2-yl]phenyl]-3-pyridin-2-ylurea]
IC50 [1]: 1.31 nM

CC(C)NC(=O)Nc1ccc(-c2nc(N3CCOC[C@@H]3C)cc(C3(S(=O)(=O)c4ccccn4)CC3)n2)cc1 [Example 28d, 1-[4-[4-[(3S)-3-methylmorpholin-4-yl]-6-(1-pyridin-2-ylsulfonylcyclopropyl)pyrimidin-2-yl]phenyl]-3-propan-2-ylurea]
IC50 [1]: 2.37 nM

Cc1csc(S(=O)(=O)C2(c3cc(N4CCOC[C@@H]4C)nc(-c4ccc(NC(=S)NCCO)cc4)n3)CC2)n1 [Example 37r, 3-(2-hydroxyethyl)-1-[4-[4-[(3S)-3-methylmorpholin-4-yl]-6-[1-[(4-methyl-1,3-thiazol-2-yl)sulfonyl]cyclopropyl]pyri-midin-2-yl]phenyl]thiourea]
IC50 [1]: 1.62 nM

C[C@H]1COCCN1c1cc(C2(S(=O)(=O)c3nccs3)CCC2)nc(-c2ccc(NC(=O)NCc3ncc[nH]3)cc2)n1 [Example 98i, 3-(1H-imidazol-2-ylmethyl)-1-[4-[4-[(3S)-3-methylmorpholin-4-yl]-6-[1-(1,3-thiazol-2-ylsulfonyl)cyclobutyl]pyrimidin-2-yl]phenyl]urea]
IC50 [1]: 28.5 nM

C[C@H]1COCCN1c1cc(C2(S(=O)(=O)c3ccc(F)cc3)CC2)nc(-c2cnc(NC(=O)Nc3cnn(C)c3)nc2)n1 [Example 14h, 1-[5-[4-[1-(4-fluorophenyl)sulfonylcyclopro-pyl]-6-[(3S)-3-methylmorpholin-4-yl]pyrimidin-2-yl]pyrimidin-2-yl]-3-(1-methylpyrazol-4-yl)urea]
IC50 [1]: 140 nM

CNC(=O)Nc1ccc(-c2nc(N3CCOC[C@@H]3C)cc(C3(S(=O)(=O)c4c(F)cccc4F)CC3)n2)cc1 [Example 86, 1-[4-[4-[1-(2,6-Difluorophenyl)sulfonylcyclopropyl]-6-[(3S)-3-methylmorpholin-4-yl]pyrimidin-2-,yl]phenyl]-3-methylurea]
IC50 [1]: 2.47 nM

C[C@H]1COCCN1c1cc(C2(S(C)(=O)=O)CCC2)nc(-c2ccc(NC(=S)NCCO)cc2)n1 [Example 62, 3-(2-Hydroxyethyl)-1-[4-[4-[(3S)-3-methylmorpholin-4-yl]-6-(1-methylsulfonylcyclobutyl)pyrimidin-2-yl]phenyl]thiourea]
IC50 [1]: 2.05 nM

Cc1nn(C)cc1S(=O)(=O)C1(c2cc(N3CCOC[C@@H]3C)nc(-c3ccc(NC(=O)NCCO)cc3)n2)CC1 [Example 55b, 1-[4-[4-[1-(1,3-dimethylpyrazol-4-yl)sulfonylcyclopropyl]-6-[(3S)-3-methylmorpholin-4-yl]pyrimidin-2-yl]phenyl]-3-(2-hydroxyethyl)urea]
IC50 [1]: 16.1 nM

CCCNC(=O)Nc1ccc(-c2nc(N3CCOC[C@@H]3C)cc(C3(S(=O)(=O)c4ccncc4)CC3)n2)cc1 [Example 6g, 1-[4-[4-[(3S)-3-methylmorpholin-4-yl]-6-(1-pyridin-4-ylsulfonylcyclopropyl)pyrimidin-2-yl]phenyl]-3-propyl-urea]
IC50 [2]: 2.25 nM

CNC(=O)Nc1ccc(-c2nc(N3CCOCC3)cc(C3(S(=O)(=O)C4CC4)CCC3)n2)cc1 [Example 13q, 1-[4-[4-(1-cyclopropylsulfonylcyclobutyl)-6-morpholin-4-ylpyrimidin-2-yl]phenyl]-3-methylurea]
IC50 [1]: 1.92 nM

CC(C)S(=O)(=O)C1(c2cc(N3CCOC[C@@H]3C)nc(-c3ccc(NC(=O)Nc4ccccn4)cc3)n2)CC1 [Example 7l, 1-[4-[4-[(3S)-3-methylmorpholin-4-yl]-6-(1-propan-2-ylsulfonylcyclopropyl)pyrimidin-2-yl]phenyl]-3-pyridin-2-yl-urea]
IC50 [2]: 9.13 nM

CC(C)NC(=O)Nc1ccc(-c2nc(N3CCOC[C@@H]3C)cc(C3(S(=O)(=O)C4CC4)CC3)n2)cc1 [Example 3d, 1-[4-[4-(1-cyclopropylsulfonylcyclopropyl)-6-[(3S)-3-methylmorpholin-4-yl]pyrimidin-2-yl]phenyl]-3-propan-2-yl-urea]
IC50 [2]: 13.5 nM

CC(C)CNC(=O)Nc1ccc(-c2nc(N3CCOC[C@@H]3C)cc(C3(S(=O)(=O)c4ccc(Cl)cc4)CC3)n2)cc1 [Example 27c, 1-[4-[4-[1-(4-chlorophenyl)sulfonylcyclopropyl]-6-[(3S)-3-methylmorpholin-4-yl]pyrimidin-2-yl]phenyl]-3-(2-methylpropyl)urea]
IC50 [1]: 14 nM
